In patent publication US12472225B2 (priority 2019, dated 2025):
Where a SMILES comes first, the peptide text is derived from it. Bridges are numbered along the chain shown (N, C = ends). [ ]: non-standard residue; d: D form. The star is where a group is joined. Octanoyl = CCCCCCCC(=O)*; Dab = NCC[C@H](N)C(=O)O; Abu = CC[C@H](N)C(=O)O

Assays:
[1] = biological target: T1, binding of Shiga toxin 2 to human neutrophils expressing the TLR4 (Escherichia phage 933W, UniProt P09385); experiment: cell-based; assay type: cell-based
T1 sequence (P09385 whole entry, looked up): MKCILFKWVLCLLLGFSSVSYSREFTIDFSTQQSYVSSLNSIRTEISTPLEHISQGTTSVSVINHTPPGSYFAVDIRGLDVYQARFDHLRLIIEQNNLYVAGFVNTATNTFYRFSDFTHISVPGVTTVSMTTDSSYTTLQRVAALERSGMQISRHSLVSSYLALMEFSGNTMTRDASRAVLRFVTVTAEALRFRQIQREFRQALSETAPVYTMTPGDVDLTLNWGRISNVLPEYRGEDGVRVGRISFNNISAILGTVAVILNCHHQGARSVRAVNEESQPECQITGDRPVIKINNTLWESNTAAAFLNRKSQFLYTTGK

[2] = test system: neutrophil/platelet aggregates in human blood; assay type: cell-based
[3] = test system: monocyte/platelet aggregates in human blood; assay type: cell-based
[4] = test system: Raji cells (Burkitt lymphoma); assay type: cell-based, human
Shiga toxin 2 = Shiga toxin 2 (Escherichia phage 933W, UniProt P09385); experiment: biochemical; assay type: binding
Chain of Shiga toxin 2 (P09385 whole entry, looked up): as above

[5] = test system: Raji cells (Burkitt lymphoma); details: cited from earlier work
human renal tubule cells = details: cited from earlier work
[6] = biological target: T1, binding of Shiga toxin 2 to human neutrophils expressing the TLR4; details: cited from earlier work

CCCCCCCC(=O)N[C@@H](CCN)C(=O)N[C@H](C(=O)N[C@@H](C(=O)N[C@H]1CCNC(=O)[C@H]([C@@H](C)O)NC(=O)[C@H](CCN)NC(=O)[C@H](CC)NC(=O)[C@H](CC(C)C)NC(=O)[C@@H](Cc2ccccc2)NC(=O)[C@H](CCN)NC1=O)[C@H](C)O)[C@@H](C)O [NAB815, OA-Dab-Thr-DThr-cy[Dab-Dab-DPhe-Leu-Abu-Dab-Thr-]] (Octanoyl-[Dab]T[dT][Dab][Dab][dF]L[Abu][Dab]T; lactam 4-C)
inhibition of the binding of Shiga toxin 2 to the neutrophil (in words) [1]: strong inhibitor
IC50 ([1]; IC50 (concentration determining a 50% inhibition) of binding of Shiga toxin 2 to neutrophils): 48.5 nM
IC50 ([1]; concentration inhibiting binding of Shiga toxin 2 to neutrophils by 50%): 43 nM
inhibition of formation of neutrophil/platelet aggregates [2]: more than 70%
inhibition of formation of monocyte/platelet aggregates [3]: more than 70%
protection of Raji cells from Shiga toxin 2 intoxication (protein synthesis) [4]: no protective effect
Kd (Shiga toxin 2): 5 nM
maximum reduction of the fluorescence emission (Shiga toxin 2): approximately 10%

OA-Thr-Abu-cy[Dab-Dab-DPhe-Leu-Dab-Dab-Thr-] [NAB7061, reference compound]
inhibition of the binding of Shiga toxin 2 to the neutrophil (in words) [1]: scarcely effective

MOA/MHA-Dab-Thr-Dab-cy[Dab-Dab-DPhe-Leu-Dab-Dab-Thr-] [polymyxin B]
effect on formation of neutrophil/platelet aggregates (in words) [2]: not effective
protection of Raji cells from Shiga toxin 2 intoxication [5]: no protective effect
effect on formation of monocyte/platelet aggregates (in words) [3]: not effective
cytotoxicity IC50 (human renal tubule cells): 18 µg/mL
IC50 of binding of Shiga toxin 2 to neutrophils [6]: 3.5 µg/mL

Ac-Thr-DSer-cy[Dab-Dab-DPhe-Leu-Dab-Dab-Thr-] [NAB741, reference compound]
inhibition of the binding of Shiga toxin 2 to the neutrophil (in words) [1]: scarcely effective
